Consider six compounds from patent US11109593B2, “Isoxazolin-5-one derivative and herbicide containing same as active ingredient” (HOKKO CHEMICAL INDUSTRY CO., LTD., priority 2017, dated 2021).

Type in all cases: in vivo
The test system of experiment [1] is Amaranthus viridis. The experiment is described as follows: Test Example 4: herbicidal effect test by treatment of leave and stem in dry field farming (seven days after seeding). As to conditions: 120 g/10a active ingredient, emulsion sprayed seven days after seeding, evaluated 14 days after treatment. The method in brief:
(§1)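 Duplicate pots were scored 14 days post-spray by dry weight, herbicidal rate = {1 − treated/untreated average dry weight} × 100. The water-diluted emulsion, equivalent to 120 g active ingredient per 10 ares in 100 L, was applied seven days after sowing 20 seeds each into the upper 1 cm of alluvial soil.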

The subject of experiment [2] is southern crabgrass. The description is as above. As to conditions: 120 g/10a active ingredient, emulsion sprayed seven days after seeding, evaluated 14 days after treatment. The method, boiled down:
as §1

The test system of experiment [3] is Echinochloa crus-galli. Described as above. As to conditions: 120 g/10a active ingredient, emulsion sprayed seven days after seeding, evaluated 14 days after treatment. The method, boiled down: as §1
Experiment [4] has as its system Chenopodium album. The description is as above. As to conditions: 120 g/10a active ingredient, emulsion sprayed seven days after seeding, evaluated 14 days after treatment. The method, boiled down: as §1
For experiment [5], the system named is Scirpus juncoides. Description: Test Example 2: herbicidal effect test by treatment during growing period in paddy rice cultivation (seven days after seeding). As to conditions: 120 g/10a active ingredient, assessed 14 days after treatment, dry weight vs untreated area. The method in brief: (§2)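 Sow 30 seeds per species (0–1 cm) into puddled, fertilized paddy soil; keep flooded ~3 cm in greenhouse. Day 7 after seeding: drop water-diluted emulsion, 120 g a.i./10 ares. Harvest 14 d post-treatment; compare dry weight with untreated pots (duplicate).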

The test system of experiment [6] is Echinochloa crus-galli. The description is as above. As to conditions: 120 g/10a active ingredient, assessed 14 days after treatment, dry weight vs untreated area. The method in brief:
as §2

In experiment [7] the test system is broad leaf weeds (Lindernia pyxidaria and Monochoria vaginalis). The description is as above. The following applies: 120 g/10a active ingredient, assessed 14 days after treatment, dry weight vs untreated area; for pest or weed control at 1200 g/ha: 336 h. The method, boiled down: as §2
The test system of experiment [8] is Amaranthus viridis. The experiment is described as follows: Test Example 3: herbicidal effect test by treatment of dry field farming soil (one day after seeding). As to conditions: 120 g/10a active ingredient, evaluated 14 days after treatment. The method, boiled down:
(§3)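 Weeds were seeded into the upper soil layer of alluvial field soil and, one day afterwards, the soil surface was sprayed with water-diluted emulsion delivering 120 g active ingredient per 10 ares. Mean plant dry weight relative to untreated pots after 14 days gave the herbicidal rate, tested in duplicate.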

In experiment [9] the test system is southern crabgrass. The description is as above. The following applies: 120 g/10a active ingredient, evaluated 14 days after treatment. The method, boiled down:
as §3

Experiment [10] deals with Echinochloa crus-galli. Described as above. The following applies: 120 g/10a active ingredient, evaluated 14 days after treatment. The method in brief: as §3
Experiment [11] has as its system Chenopodium album. The experiment is described as above. The following applies: 120 g/10a active ingredient, evaluated 14 days after treatment. The method in brief:
as §3

Experiment [12] concerns Scirpus juncoides. The experiment is described as follows: Test Example 1: herbicidal effect test by treatment of rice paddy soil (immediately after seeding). The following applies: 120 g/10a active ingredient, dry weight vs untreated area, 14 days after treatment. The method in brief:
(§4)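 Paddy soil in pots with compound fertilizer, puddled; 30 seeds per species sown at 0–1 cm, flooded ~3 cm, greenhouse. Water-diluted emulsions dropped onto water immediately after seeding at 120 g active ingredient per 10 ares, duplicate. Herbicidal rate (%) from plant dry weight versus untreated, 14 days after treatment.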

For experiment [13], the system named is Echinochloa crus-galli. The experiment is described as above. As to conditions: 120 g/10a active ingredient, dry weight vs untreated area, 14 days after treatment. The method, boiled down:
as §4

Experiment [14] relates to broad leaf weeds (Lindernia pyxidaria and Monochoria vaginalis). The description is as above. The following applies: 120 g/10a active ingredient, dry weight vs untreated area, 14 days after treatment; for pest or weed control at 1200 g/ha: 336 h. The method in brief: as §4

`Cc1c(Cc2ccccc2NS(=O)(=O)C(F)(F)F)c(=O)on1CC1CCCO1` (stereo not drawn) [Compound 1-230]: the “herbicidal effect (herbicidal rate), Amaranthus viridis” value (from here on “herbicidal effect … Amaranthus viridis”) in experiment [1] came to 40%. Further, in experiment [2], the “herbicidal effect (herbicidal rate), southern crabgrass” value (“herbicidal effect … southern crabgrass” for short) worked out at 80%. The “herbicidal effect (herbicidal rate), Echinochloa crus-galli” value in experiment [3] was found to be 80%. Besides, the “herbicidal effect (herbicidal rate), Chenopodium album” value (“herbicidal effect … Chenopodium album” for short) in [4] came to 40%. Besides, the “Herbicidal rate (%) Scirpus juncoides” value in experiment [5] and in experiment [12] was 90% throughout. The figures for the “Herbicidal rate (%) Echinochloa crus-galli” value in experiment [6] and in experiment [13] were 90% and 100%, respectively. Also, the “Herbicidal rate (%) Lindernia pyxidaria” value in experiment [7] (Lindernia pyxidaria) is given as 70%; in [14] (Lindernia pyxidaria), 100%. In addition, the “Herbicidal rate (%) Monochoria vaginalis” value in [7] (Monochoria vaginalis) stood at 90%; in experiment [14] (Monochoria vaginalis) it was 80%. For the same compound, in [8], the “herbicidal rate, Amaranthus viridis” value stood at 60%. In addition, in experiment [9], the “herbicidal rate, southern crabgrass” value is given as 100%. Further, the “herbicidal rate, Echinochloa crus-galli” value in [10] is given as 100%. Further, the “herbicidal rate, Chenopodium album” value in experiment [11] came out at 60%.

Take `CCN(CC)C(=O)n1oc(=O)c(Cc2ccccc2NS(=O)(=O)C(F)(F)F)c1C` [Compound 1-248]: the “herbicidal effect … Amaranthus viridis” value in experiment [1] was determined as 40%. Moreover, the “herbicidal effect … southern crabgrass” value in [2] was 40%. Also, the “herbicidal effect (herbicidal rate), Echinochloa crus-galli” value in [3] turned out to be 80%. For the same compound, the “herbicidal effect … Chenopodium album” value in [4] turned out to be 0%. The “Herbicidal rate (%) Scirpus juncoides” value in experiment [5] came to 90%; in experiment [12], 50%. For the same compound, the “Herbicidal rate (%) Echinochloa crus-galli” value in [6] came to 40%; in [13], 60%. For the same compound, the “Herbicidal rate (%) Lindernia pyxidaria” value in [7] (Lindernia pyxidaria) and in experiment [14] (Lindernia pyxidaria) was 90% each time. Moreover, the entries for the “Herbicidal rate (%) Monochoria vaginalis” value in experiment [7] (Monochoria vaginalis) and in experiment [14] (Monochoria vaginalis) were 90% and 80%, respectively. Further, the “herbicidal rate, Amaranthus viridis” value in experiment [8] was 50%. Besides, the “herbicidal rate, southern crabgrass” value in experiment [9] came to 80%. Moreover, the “herbicidal rate, Echinochloa crus-galli” value in [10] worked out at 70%. In experiment [11], the “herbicidal rate, Chenopodium album” value was found to be 60%.

Consider `CC(=O)N(c1ccccc1Cc1c(C)n(C(C)(C)C)oc1=O)S(=O)(=O)C(F)(F)F` [Compound 1-293], for which the “herbicidal effect … Amaranthus viridis” value in experiment [1] is 40%. Further, in [2], the “herbicidal effect … southern crabgrass” value is 90%. Further, in experiment [3], the “herbicidal effect (herbicidal rate), Echinochloa crus-galli” value came to 90%. In addition, the “herbicidal effect … Chenopodium album” value in [4] was determined as 40%. Also, the “Herbicidal rate (%) Scirpus juncoides” value in experiment [5] and in [12] was 90% throughout. In addition, the “Herbicidal rate (%) Echinochloa crus-galli” value in experiment [6] and in [13] was 90% throughout. Also, the “Herbicidal rate (%) Lindernia pyxidaria” value in experiment [7] (Lindernia pyxidaria) and in [14] (Lindernia pyxidaria) was 90% in each case. Moreover, the “Herbicidal rate (%) Monochoria vaginalis” value in experiment [7] (Monochoria vaginalis) and in experiment [14] (Monochoria vaginalis) was 90% each time. Further, in [8], the “herbicidal rate, Amaranthus viridis” value worked out at 90%. In [9], the “herbicidal rate, southern crabgrass” value is listed as 90%. In [10], the “herbicidal rate, Echinochloa crus-galli” value was determined as 90%. The “herbicidal rate, Chenopodium album” value in [11] amounted to 90%.

For the compound `CCC(C)n1oc(=O)c(Cc2ccccc2N(C(C)=O)S(=O)(=O)C(F)(F)F)c1C` (stereo not drawn) [Compound 1-294], in [1], the “herbicidal effect … Amaranthus viridis” value was 40%. For the same compound, the “herbicidal effect … southern crabgrass” value in [2] is given as 90%. Also, the “herbicidal effect (herbicidal rate), Echinochloa crus-galli” value in experiment [3] is 90%. Further, the “herbicidal effect … Chenopodium album” value in experiment [4] is 40%. In addition, the “Herbicidal rate (%) Scirpus juncoides” value in experiment [5] and in experiment [12] was 90% each time. Besides, the “Herbicidal rate (%) Echinochloa crus-galli” value in [6] and in experiment [13] was 90% in each case. The “Herbicidal rate (%) Lindernia pyxidaria” value in experiment [7] (Lindernia pyxidaria) and in experiment [14] (Lindernia pyxidaria) was 90% in each case. The “Herbicidal rate (%) Monochoria vaginalis” value in experiment [7] (Monochoria vaginalis) and in [14] (Monochoria vaginalis) was 90% each time. For the same compound, the “herbicidal rate, Amaranthus viridis” value in [8] was 90%. In addition, in [9], the “herbicidal rate, southern crabgrass” value came out at 90%. Besides, the “herbicidal rate, Echinochloa crus-galli” value in experiment [10] turned out to be 90%. For the same compound, the “herbicidal rate, Chenopodium album” value in experiment [11] is on record as 90%.

Consider `CCC(CC)n1oc(=O)c(Cc2ccccc2N(C(C)=O)S(=O)(=O)C(F)(F)F)c1C` [Compound 1-295], for which the “herbicidal effect … Amaranthus viridis” value in experiment [1] is listed as 40%. Further, the “herbicidal effect … southern crabgrass” value in experiment [2] was 90%. Moreover, the “herbicidal effect (herbicidal rate), Echinochloa crus-galli” value in experiment [3] is listed as 90%. In addition, in experiment [4], the “herbicidal effect … Chenopodium album” value is on record as 40%. Further, the “Herbicidal rate (%) Scirpus juncoides” value in experiment [5] and in [12] was 90% each time. The “Herbicidal rate (%) Echinochloa crus-galli” value in [6] and in experiment [13] was 90% in each case. For the same compound, the “Herbicidal rate (%) Lindernia pyxidaria” value in [7] (Lindernia pyxidaria) and in [14] (Lindernia pyxidaria) was 90% each time. In addition, the “Herbicidal rate (%) Monochoria vaginalis” value in experiment [7] (Monochoria vaginalis) and in experiment [14] (Monochoria vaginalis) was 90% in each case. For the same compound, in [8], the “herbicidal rate, Amaranthus viridis” value is listed as 90%. Further, the “herbicidal rate, southern crabgrass” value in experiment [9] is on record as 90%. Moreover, the “herbicidal rate, Echinochloa crus-galli” value in experiment [10] came out at 90%. Moreover, the “herbicidal rate, Chenopodium album” value in [11] was found to be 90%.

For the compound `CC(=O)N(c1ccccc1Cc1c(C)n(CC(C)C)oc1=O)S(=O)(=O)C(F)(F)F` [Compound 1-297, N-[2-[(2-isobutyl-3-methyl-5-oxoisoxazol-4-yl)methyl]phenyl]-N-(trifluoromethylsulfonyl)acetamide], the pest or weed control at 1200 g/ha in experiment [1] (Amaranthus viridis, 336 h, read-out: herbicidal effect (herbicidal rate), Amaranthus viridis) turned out to be 40%; in experiment [2] (Digitaria ciliaris, 336 h, read-out: herbicidal effect (herbicidal rate), southern crabgrass), 60%; in experiment [3] (Echinochloa crus-galli, 336 h, read-out: herbicidal effect (herbicidal rate), Echinochloa crus-galli), 80%; in experiment [4] (Chenopodium album, 336 h, read-out: herbicidal effect (herbicidal rate), Chenopodium album), 40%; in experiment [5] (Schoenoplectiella juncoides, 336 h, read-out: herbicidal rate (%) Scirpus juncoides), 90%; in experiment [6] (Echinochloa crus-galli, 336 h, read-out: herbicidal rate (%) Echinochloa crus-galli) it was 100%. Besides, the pest or weed control at 1200 g/ha in experiment [7] (Lindernia pyxidaria, read-out: herbicidal rate (%) Lindernia pyxidaria) turned out to be 100%; in experiment [7] (Monochoria vaginalis, read-out: herbicidal rate (%) Monochoria vaginalis), 90%; in experiment [8] (Amaranthus viridis, 336 h, read-out: herbicidal rate, Amaranthus viridis) it was 90%; in experiment [9] (Digitaria ciliaris, 336 h, read-out: herbicidal rate, southern crabgrass), 90%; in [10] (Echinochloa crus-galli, 336 h, read-out: herbicidal rate, Echinochloa crus-galli) it was 100%; in experiment [11] (Chenopodium album, 336 h, read-out: herbicidal rate, Chenopodium album), 90%. Further, the pest or weed control at 1200 g/ha in [12] (in Schoenoplectiella juncoides, 336 h, read-out: Herbicidal rate (%) Scirpus juncoides) amounted to 100%; in [13] (in Echinochloa crus-galli, 336 h, read-out: Herbicidal rate (%) Echinochloa crus-galli), 100%; in experiment [14] (Monochoria vaginalis, read-out: Herbicidal rate (%) Monochoria vaginalis) it was 100%; in experiment [14] (in Lindernia, Lindernia pyxidaria, read-out: Herbicidal rate (%) Lindernia pyxidaria), 100%.
